The assay concerns the target Protein kinase C (PKC). The assay is described as follows: Protein kinase C assay (96-well, H1 histone phosphorylation, 32P-ATP). The following applies: PKC partially purified from rat brain; H1 histone 200 μg, 50 μM ATP, 5-7 min, room temperature; estimated error of IC50 less than 10%. In kind it is biochemical. The protocol:
Protein kinase C (PKC) was partially purified from the cytosol of rat brains as described by […]., Thromb. Res. 44:649-660, 1986. After removing the brains, all manipulations were carried out at 4° C. Briefly, the cerebellum was removed from 8-10 rat brains and each brain was then homogenized in 9 ml sucrose/EDTA (0.32 M sucrose, 1 mM EDTA, 5 mM Tris, pH 7.4). The pooled homogenate was then centrifuged at 1000×g for 10 min at 4° C., the pellet resuspended in the same volume of fresh sucrose/EDTA and recentrifuged at 1000×g for 10 min. at 4° C. The supernatants from each of these spins was pooled and centrifuged at 25,700×g for 30 min. at 4° C., and the resulting pellet homogenized in 20 ml of buffer A. (20 mM Tris pH 7.5, 0.1 mM calcium chloride, 0.4 mM leupeptin), at 4° C. Membrane associated PKC was then pelleted by centrifugation at 45,700×g at 4° C. for 15 min. and resuspended in 20 ml of buffer A. This step was repeated for a total of 3 centrifugations, discarding the supernatants and finally resuspending the pellet in 20 ml of buffer B (20 mM Tris pH 7.5, 1 mM EGTA, 1 mM EDTA, and 0.01 mM leupeptin) and stirring on ice for 30 min. Disassociated PKC was then collected by centrifuging at 45,700×g at 4° C. for 15 min. The pellet was discarded and the supernatant centrifuged at 100,000×g at 4° C. for 60 min. The pellet was again discarded and the supernatant was adjusted to remove all EDTA and EGTA by adding sufficient volume of a stock solution containing 100 mM each CaCl2 and MgCl2 to give a final concentration of 1 mM Ca^++ and 1 mM Mg^++. The resulting slurry was then applied to a 12 cm×1 cm DE-52 (DEAE cellulose, Whatman®) column previously equilibrated with buffer B. […] After washing the column with 70 ml of buffer B to remove unbound proteins, undesired proteins were eluted with 40 ml of buffer B containing 40 mM NaCl and the PKC containing fraction eluted with 20 ml of buffer B containing 150 mM NaCl. The PKC eluate was then concentrated to about 5 ml using an Amicon® ultrafiltration cell fitted with a PM-10 membrane, and excess NaCl removed by adding back 30 ml 5 mM Tris pH 7.4 and reconcentrating to a final volume of about 5 ml. The concentrated and desalted PKC prep was then adjusted to contain 10% glycerol and 0.5% Triton X-100 before aliquoting and storing 200 μL volumes at -70° C. Frozen preps were stable for at least 3 months at -70°0 C. Protein kinase C was assayed using a semi-automated 96-well plate procedure based upon the procedures of Aftab and Hait, and […] and Vial (Aftab, D. T. and W. N. Hait., Anal Biochem. 187:84-88. 1990.; […]. and Vial, H. J., Anal Biochem. 184:283-290. 1990). Briefly, each well of a 96 well "u" well microtiter plate received a total of 100 μl assay volume consisting of final concentrations of 30 mM Tris pH 7.4, 10 mM MgSO4, 1 mM EGTA, 200 μg Hl histone (Sigma Type III-S H5505), 50 μM ATP, 0.5 μCi 30 Ci/mmol ^32 P-ATP, and 30 μl PKC extract diluted in 5 mM Tris, pH 7.4 containing 1 mg per ml each of leupeptin, pepstatin and chymastatin, and 1 mM phenylmethylsulfonylfluoride. Reactions were started by adding the PKC extract and stopped by the addition of 50 μl 40% trichloroacetic acid, followed by 25 μl of 50 mM unlabelled ATP and 25 μl of 0.5% bovine serum albumin, and then collected on glass fiber filters using a Skatron® automatic micro cell harvester. Samples were washed for 30 seconds with 5% trichloroacetic acid, dried for 5 seconds on the harvester, and then transferred to scintillation vials for counting and subsequent data analysis. Reactions were run for five to seven minutes at room temperature. Data were fit to a competitive binding curve using the ENZFITTER® program (Biosoft). The error estimated for the IC50 values was less than 10%.

Molecules are shown by their SMILES. Structures can show the parent of a compound that is named as a salt.

With `CCN(CC)CCOc1cccc2c1-c1c(OCCN(CC)CC)cccc1C2=O` [I.D. No. 104,488], the IC50 is 92 µM. Then `CCN(CC)CCOc1cc(OC)c2c(c1)C(=O)c1cccc(OCCN(CC)CC)c1-2` [I.D. No. 105,711, 2,5-bis-(2-diethylamino-ethoxy)-4-methoxy-fluoren-9-one], with 1.1 µM. On to `CCN(CC)CCOc1cccc2c1C(=O)c1cccc(OCCN(CC)CC)c1-2` [I.D. No. 104,147, 1,5-Bis[(diethylamino)ethoxy]-fluoren-9-one], for which the IC50 was 15 µM. Turning to `CN(C)CCCOc1ccc2c(c1)C(=O)c1cccc(OCCCN(C)C)c1-2` [I.D. No. 102,352, 2,5-Bis-(3-dimethylamino-propoxy)-fluoren-9-one], the IC50 is 50 µM. Regarding `CCCOc1cc(OC)c2c(c1N)C(=O)c1cccc(OCCN(CC)CC)c1-2` [I.D. No. 105,509, 1-Amino-5-(2-diethylamino-ethoxy)-4-methoxy-2-propoxy-fluoren-9-one], the IC50 is 0.079 µM. The value for `CCN(CC)CCOc1cccc2c1-c1c(OC)cc(OC)cc1C2=O` [I.D. No. 105,950, 5-(2-Diethylamino-ethoxy)-2,4-dimethoxy-fluoren-9-one] was 0.9 µM; that for `CCN(CC)CCCOc1cccc2c1-c1ccc(OC)cc1C2=O` [I.D. No. 103,388, 5-(3-Diethylamino-propoxy)-2-methoxy-fluoren-9-one] was 56 µM.

Regarding `CCCOc1cc(OC)c2c(c1)C(=O)c1cccc(OCCN3CCOCC3)c1-2` [I.D. No. 104,439, 5-[2-(morpholino-4-yl)-ethoxy]-4-methoxy-2-propyloxy-fluoren-9-one hydrochloride], the IC50 is above 10 µM. Then `CCN(CC)CCOc1ccc2c(c1)-c1c(OCCN(CC)CC)cccc1C2=O` [I.D. No. 104,004, 3,5-Bis[(2-diethylamino)ethoxy]-fluoren-9-one], with 4 µM; and `CCN(CC)CCOc1cccc2c1-c1c(OC)cccc1C2=O` [I.D. No. 104,652, 4-(2-diethylamino-ethoxy)-5-methoxy-fluoren-9-one], with 1 µM; and `CCN(CC)CCOc1cccc2c1-c1ccc(OC)cc1C2=O` [I.D. No. 103,949, 5-(2-Diethylamino-ethoxy)-2-methoxy-fluoren-9-one], with 7 µM. The value for `CCCOc1cc(OC)c2c(c1N)C(=O)c1cccc(OCCN3CCOCC3)c1-2` [I.D. No. 104,427, 5-[2-(morpholino-4-yl)-ethoxy]-1-amino-4-methoxy-2-propyloxy-fluoren-9-one hydrochloride] was 2.3 µM; that for `CCN(CC)CCOc1cccc2c1-c1c(OC)cc(OC)c(N)c1C2=O` [I.D. No. 105,473, 1-Amino-5-(2-diethylamino-ethoxy)-2,4-dimethoxy-fluoren-9-one hydrochloride] was 0.16 µM.

On to `CCN(CC)CCOc1ccc2c(c1)C(=O)c1cccc(OCCN(CC)CC)c1-2` [I.D. No. 11,080, 2,5-Bis[(2-diethylamino)ethoxy]-fluoren-9-one], for which the 50% inhibitory concentration (IC50) is 3 µM. The value for `CCCOc1ccc2c(c1)C(=O)c1cccc(OCCN(CC)CC)c1-2` [I.D. No. 103,049, 5-(2-Diethylamino-ethoxy)-2-propoxy-fluoren-9-one] was 9 µM; that for `CN(C)CCOc1ccc2c(c1)C(=O)c1cccc(OCCN(C)C)c1-2` [I.D. No. 101,209, 2,5-Bis-(2-dimethylamino-ethoxy)-fluoren-9-one] was 11 µM. Then `CCCOc1cc(OC)c2c(c1)C(=O)c1cccc(OCCN(CC)CC)c1-2` [I.D. No. 104,952, 5-(2-diethylamino-ethoxy)-4-methoxy-2-propoxy-fluoren-9-one], with 0.576 µM.

As usually defined, the IC50 is the concentration that gives 50% inhibition.

The record behind these values is patent publication US6004959A, “Alkyloxyamino substituted fluorenones and their use as protein kinase-C inhibitors” (Hoechst Marion Roussel, Inc., priority 1997, dated 1999).
